In US9624170B2, “4-(piperrazin-1-yl)-pyrrolidin-2-one compounds as monoacylglycerol lipase (MAGL) inhibitors” (TAKEDA PHARMACEUTICAL COMPANY LIMITED, priority 2013, dated 2017):

Each compound was assayed against T1, human MAGL (His-hMAGL) (Homo sapiens, UniProt Q99685) (assay: Measurement of MAGL inhibitory activity by absorbance). Conditions: 10 μM test compound; substrate p-nitrophenyl acetate, absorbance at 405 nm.
T1 construct: made in house; host or cells: Escherichia coli BL21(DE3)
T1 sequence (Q99685 1-303): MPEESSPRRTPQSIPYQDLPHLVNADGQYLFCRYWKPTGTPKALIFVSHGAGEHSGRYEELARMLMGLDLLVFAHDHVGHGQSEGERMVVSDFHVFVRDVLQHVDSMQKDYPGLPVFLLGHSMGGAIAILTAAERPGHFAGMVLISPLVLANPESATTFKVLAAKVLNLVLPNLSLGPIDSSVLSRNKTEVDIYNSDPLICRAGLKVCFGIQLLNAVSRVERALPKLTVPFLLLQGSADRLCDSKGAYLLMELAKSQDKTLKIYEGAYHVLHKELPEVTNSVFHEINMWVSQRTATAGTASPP
Format: biochemical
From the text: (1) Cloning of Human MGLL Encoding MAGL Protein and Construction of Expression Plasmid
Human MGLL cDNA was obtained by PCR using human ORF Clone (DNAForm; Clone ID: 100004585) as a template. For PCR, two kinds of primers: […]
The obtained PCR product was digested with Bam HI and Not I (Takara Bio Inc.), inserted into the Bam HI/Not I site of pET21HH(V) (pET21a (Novagen) inserted with His x6 and TEV Protease recognition sequence) by using Ligation High (Toyobo Co., Ltd.), and introduced into ECOS™ JM109 (Nippon Gene Co., Ltd.), whereby expression plasmid pET21HH(V)/His-hMGLLv2 for Escherichia coli was constructed. (2) Preparation of Recombinant Polyhistidine Tagged Human MAGL Protein
Recombinant His-hMAGL protein was prepared by transforming ECOS™ Competent E. coli BL21(DE3) (Nippon Gene Co., Ltd.) with the pET21HH(V)/His-hMGLLv2 plasmid prepared above. Escherichia coli obtained by transformation was inoculated to 10 mL of LB medium (1% peptone, 0.5% yeast extract, 0.5% sodium chloride, 0.01% ampicillin), and cultured at 30° C. for 16 hr. […] When the turbidity of the culture medium reached about 500 Klett unit, the culture temperature was lowered to 16° C., isopropyl-β-D-thiogalactopyranoside (IPTG) was added to a final concentration of 1 mM, and the mixture was further cultured for 19 hr. After the completion of culture, the culture medium was centrifuged (4° C., 6,000 rpm, 10 min) to give His-hMAGL expression Escherichia coli. Then, His-hMAGL expression Escherichia coli was suspended in 50 mM Tris-HCl (pH 8.0, 100 ml) containing 1% Triton X-100, 20 mM imidazole, 3 mM DTT, 5 U/mL Benzonase (Merck) and 150 mM NaCl, sufficiently cooled, and subjected to sonication at […]=60%, 15 sec/ON, 30 sec/OFF for 3 min using ¾″ solid type crushed horn of BRANSON Digital Sonifier 450 (Central Scientific Commerce, Inc.). Furthermore, the homogenate was centrifuged (4° C., 15,000 rpm, 15 min) and the supernatant was obtained. As the purification apparatus, AKTA explorer 10s (GE Healthcare Japan Corporation) was used at 4° C. To the obtained supernatant was added 5M NaCl to the final salt concentration of 0.3 M, and the mixture was flown through and adsorbed to 5 mL of Ni-NTA Superflow Cartridges (QIAGEN) equilibrated in advance with buffer A (50 mM Tris-HCl (pH 8.0) containing 0.05% TritonX-100, 1 mM DTT, 300 mM NaCl). The column was sufficiently washed with buffer A containing 20 mM imidazole and His-hMAGL was eluted with buffer A containing imidazole at a final concentration of 250 mM. The eluate was further subjected to gel filtration using HiLoad 26/600 Superdex 200 pg (GE Healthcare Japan Corporation) equilibrated with 50 mM Tris-HCl pH 8.0 containing 10% glycerol, 0.05% TritonX-100, 1 mM DTT, 150 mM NaCl. The eluted fraction was concentrated by Amicon Ultra-15 10K (Merck Millipore) to give purified His-hMAGL protein. The protein concentration was measured by BCA Protein Assay Kit (Thermo Fisher Scientific) using BSA as the standard.
(3) Measurement of MAGL Inhibitory Activity
His-hMAGL obtained above was diluted with enzyme reaction buffer (10 mM Tris-HCl, pH 7.5, 1 mM EDTA, 0.1 (w/v) % Triton X-100) to a concentration of 60 ng/mL. […] Thereafter, to each well was added 750 μM p-nitrophenyl acetate (Wako Pure Chemical Industries, Ltd.) by 5 μL, and the absorbance at 405 nm was measured every 2 minutes up to 10 minutes by EnVision (PerkinElmer). The amount of change was obtained by subtracting the absorbance measured immediately after the start of the reaction from the absorbance measured 10 min after the start of the reaction.
MAGL inhibitory rate (%) was calculated according to the following calculation formula. (1−(absorbance change amount of test compound addition group−absorbance change amount of enzyme addition-free group)[…](absorbance change amount of test compound addition-free group−absorbance change amount of enzyme addition-free group))×100

Row | inhibition at 10 µM | SMILES
1 | 95% | O=C(c1nccs1)N1CCN(C2CC(=O)N(c3ccc(-c4ccc(Cl)cc4)cc3)C2)CC1 (stereo not drawn) [Example 63, 1-(4′-chlorobiphenyl-4-yl)-4-(4-(1,3-thiazol-2-ylcarbonyl)piperazin-1-yl)pyrrolidin-2-one]
2 | 95% | O=C(c1nccs1)N1CCN(C2CC(=O)N(c3cccc(-c4ccc(F)cc4)c3)C2)CC1 (stereo not drawn) [Example 76, 1-(4′-fluorobiphenyl-3-yl)-4-(4-(1,3-thiazol-2-ylcarbonyl)piperazin-1-yl)pyrrolidin-2-one]
3 | 98% | O=C(c1nccs1)N1CCN(C2CC(=O)N(c3ccc4c(ccn4-c4ccc(Cl)cn4)c3)C2)CC1 (stereo not drawn) [Example 87, 1-(1-(5-chloropyridin-2-yl)-1H-indol-5-yl)-4-(4-(1,3-thiazol-2-ylcarbonyl)piperazin-1-yl)pyrrolidin-2-one]

The compounds below were run against T1, human MAGL (His-hMAGL) (assay: Measurement of MAGL inhibitory activity by mass spectrometry). Conditions: 10 μM test compound; substrate 2-arachidonylglycerol, arachidonic acid by RapidFire-mass spectrometry.
Format: biochemical
Method in brief: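 His-tagged human MAGL was reacted with 150 μM 2-arachidonylglycerol substrate (stock, added by 5 μL) for 10 min at room temperature, then stopped with formic acid. Arachidonic acid product was quantified by RapidFire–triple-quadrupole MS in negative SRM mode, corrected by arachidonic acid-d8, and converted to percent inhibition.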

Row | inhibition at 10 µM | SMILES
4 | 96% | Cc1cccc(-c2cccc(N3CC(N4CCN(C(=O)c5nccs5)CC4)CC3=O)c2)n1 (stereo not drawn) [Example 150, 1-(3-(6-Methylpyridin-2-yl)phenyl)-4-(4-(1,3-thiazol-2-ylcarbonyl)piperazin-1-yl)pyrrolidin-2-one]

Same assay, conditions: 10 μM test compound; substrate 2-arachidonylglycerol, arachidonic acid by RapidFire-mass spectrometry; 10 µM

Row | % inhibition at 10 μM | SMILES
5 | 83% | Cc1cccc(-c2cccc(N3CC(N4CCN(C(=O)c5nccs5)CC4)CC3=O)c2)n1 (stereo not drawn) [Example 150, 1-(3-(6-Methylpyridin-2-yl)phenyl)-4-(4-(1,3-thiazol-2-ylcarbonyl)piperazin-1-yl)pyrrolidin-2-one]

Same assay, conditions: MAGL inhibitory rate, test compound 10 μM, His-hMAGL, substrate 2-arachidonylglycerol, RapidFire-mass spectrometry

Row | inhibition at 10 µM | SMILES
6 | 98% | O=C(c1nccs1)N1CCN(C2CC(=O)N(c3ccc4c(c3)CCN4c3ccnc(C(F)(F)F)c3)C2)CC1 (stereo not drawn) [Example 365, 4-(4-(1,3-thiazol-2-ylcarbonyl)piperazin-1-yl)-1-(1-(2-(trifluoromethyl)pyridin-4-yl)-2,3-dihydro-1H-indol-5-yl)pyrrolidin-2-one]
7 | 100% | CC1(C)C(=O)Nc2cccc(-c3cccc(N4CC(N5CCN(C(=O)c6nccs6)CC5)CC4=O)c3)c21 (stereo not drawn) [Example 231, 3,3-dimethyl-4-(3-(2-oxo-4-(4-(1,3-thiazol-2-ylcarbonyl)piperazin-1-yl)pyrrolidin-1-yl)phenyl)-1,3-dihydro-2H-indol-2-one]
8 | 100% | N#Cc1cccc(F)c1-c1cccc(N2CC(N3CCN(C(=O)c4nccs4)CC3)CC2=O)c1 (stereo not drawn) [Example 336, 6-fluoro-3′-(2-oxo-4-(4-(1,3-thiazol-2-ylcarbonyl)piperazin-1-yl)pyrrolidin-1-yl)biphenyl-2-carbonitrile]
9 | 101% | Cc1cc(Cl)ccc1-c1cc(F)cc(N2CC(N3CCN(C(=O)c4nccs4)CC3)CC2=O)c1 (stereo not drawn) [Example 357, 1-(4′-chloro-5-fluoro-2′-methylbiphenyl-3-yl)-4-(4-(1,3-thiazol-2-ylcarbonyl)piperazin-1-yl)pyrrolidin-2-one]
10 | 102% | Cc1ccnc(C)c1-c1cccc(N2CC(N3CCN(C(=O)c4nccs4)CC3)CC2=O)c1 (stereo not drawn) [Example 352, 1-(3-(2,4-dimethylpyridin-3-yl)phenyl)-4-(4-(1,3-thiazol-2-ylcarbonyl)piperazin-1-yl)pyrrolidin-2-one]
11 | 100% | O=C(c1nccs1)N1CCN(C2CC(=O)N(c3ccc(-c4cnn5ccccc45)cc3)C2)CC1 (stereo not drawn) [Example 212, 1-(4-(pyrazolo[1,5-a]pyridin-3-yl)phenyl)-4-(4-(1,3-thiazol-2-ylcarbonyl)piperazin-1-yl)pyrrolidin-2-one]
12 | 100% | N#Cc1cccc(-c2ccc(N3CC(N4CCN(C(=O)c5nccs5)CC4)CC3=O)cc2)c1 (stereo not drawn) [Example 185, 4′-(2-oxo-4-(4-(1,3-thiazol-2-ylcarbonyl)piperazin-1-yl)pyrrolidin-1-yl)biphenyl-3-carbonitrile]
13 | 99% | O=C(c1nccs1)N1CCN(C2CC(=O)N(c3ccc4oc(-c5ccc(F)cc5)nc4c3)C2)CC1 (stereo not drawn) [Example 386, 1-(2-(4-fluorophenyl)-1,3-benzoxazol-5-yl)-4-(4-(1,3-thiazol-2-ylcarbonyl)piperazin-1-yl)pyrrolidin-2-one]
14 | 94% | O=C1CC(N2CCN(c3ncccn3)CC2)CN1c1ccc2c(c1)CCN2C(=O)Cc1ccc(F)cc1 (stereo not drawn) [Example 413, 1-(1-((4-fluorophenyl)acetyl)-2,3-dihydro-1H-indol-5-yl)-4-(4-(pyrimidin-2-yl)piperazin-1-yl)pyrrolidin-2-one]
15 | 84% | O=C(c1nccs1)N1CCN(C2CN(c3ccc(Oc4ccccc4)cc3)C(=O)C2O)CC1 (stereo not drawn) [Example 260, 3-Hydroxy-1-(4-phenoxyphenyl)-4-(4-(1,3-thiazol-2-ylcarbonyl)piperazin-1-yl)pyrrolidin-2-one]
16 | 101% | O=C(c1nccs1)N1CCN(C2CC(=O)N(c3cccc(-c4cnccc4Cl)c3)C2)CC1 (stereo not drawn) [Example 370, 1-(3-(4-chloropyridin-3-yl)phenyl)-4-(4-(1,3-thiazol-2-ylcarbonyl)piperazin-1-yl)pyrrolidin-2-one]
17 | 97% | O=C(c1cscn1)N1CCN([C@@H]2CC(=O)N(c3ccc4c(c3)CCN4C(=O)Cc3ccc(Cl)cc3)C2)CC1 [Example 415, (4R)-1-(1-((4-chlorophenyl)acetyl)-2,3-dihydro-1H-indol-5-yl)-4-(4-(1,3-thiazol-4-ylcarbonyl)piperazin-1-yl)pyrrolidin-2-one]
18 | 101% | Cc1ccccc1-c1cccc(N2CC(N3CCN(C(=O)c4ncco4)CC3)CC2=O)c1 (stereo not drawn) [Example 221, 1-(2′-methylbiphenyl-3-yl)-4-(4-(1,3-oxazol-2-ylcarbonyl)piperazin-1-yl)pyrrolidin-2-one]
19 | 102% | Cc1cccc(-n2ccc3cc(N4CC(N5CCN(C(=O)c6nccs6)CC5)CC4=O)ccc32)c1 (stereo not drawn) [Example 251, 1-(1-(3-methylphenyl)-1H-indol-5-yl)-4-(4-(1,3-thiazol-2-ylcarbonyl)piperazin-1-yl)pyrrolidin-2-one]

Same assay, conditions: MAGL inhibitory rate, test compound 10 μM, His-hMAGL, substrate 2-arachidonylglycerol, RapidFire-mass spectrometry; 10 µM

Row | % inhibition at 10 μM | SMILES
20 | 99% | O=C(c1nccs1)N1CCN(C2CC(=O)N(c3cccc(-c4cccnc4Cl)c3)C2)CC1 (stereo not drawn) [Example 266, 1-(3-(2-chloropyridin-3-yl)phenyl)-4-(4-(1,3-thiazol-2-ylcarbonyl)piperazin-1-yl)pyrrolidin-2-one(optical isomer)]
21 | 102% | O=C1Cc2ccc(-c3cccc(N4CC(N5CCN(C(=O)c6nccs6)CC5)CC4=O)c3)cc2N1 (stereo not drawn) [Example 267, 6-(3-(2-oxo-4-(4-(1,3-thiazol-2-ylcarbonyl)piperazin-1-yl)pyrrolidin-1-yl)phenyl)-1,3-dihydro-2H-indol-2-one(optical isomer)]
